Literature values, collected in US6383817B2, “Cadmium is a risk factor for human pancreatic cancer” (Wake Forest University, priority 1999, dated 2002).
Read-outs that look alike come from different tables or passages of the source.

Experiments:
mice = details: injection of 4 mg/kg, relative to saline
Wistar rats = details: injection, vs. 2.2% control
[1] = test system: Louisiana red swamp crayfish (Procambarus clarkii); details: day 14; crayfish fed plants grown for 7 days in 0.00224 ppb cadmium
rats = details: repeated injections to rats
[2] = test system: pancreatic metallothionein; details: rats
[3] = not given; remark: listed apart in the source

| Structure (SMILES) | increase in the incorporation of [3H] thymidine in the pancreas (mice) [fold] | incidence of pancreatic islet cell tumors (Wistar rats) [%] | Accumulation of cadmium in hepatopancreata [1] | rats with hepatocytic foci in the pancreata (rats) | increase in pancreatic metallothionein ([2]; injection of 4 mg/kg) [fold] | increase in pancreatic metallothionein ([2]; injection of 8 mg/kg) [fold] | SMR (x100), pancreatic cancer deaths (Elinder et al. (1985), male cadmium-nickel battery workers, Oskarshamn, Sweden) | SMR (x100), pancreatic cancer deaths (Järup et al. (1998), battery workers, Kalmar, Sweden, females) | SMR (x100), pancreatic cancer deaths (Järup et al. (1998), battery workers, Kalmar, Sweden, males) | SMR (x100), pancreatic cancer deaths (Sorahan et al. (1995), male copper cadmium alloy workers, England and Wales) | correlation (r) between estimated dietary intake of cadmium and pancreatic cancer mortality ([3]; men) | correlation (r) between estimated dietary intake of cadmium and pancreatic cancer mortality ([3]; women) |
| --- | --- | --- | --- | --- | --- | --- | --- | --- | --- | --- | --- | --- |
| [Cl][Cd][Cl] [cadmium chloride] | 2.5 | 8.5 |  |  |  |  |  |  |  |  |  |  |
| [Cd] [cadmium] |  |  | 4,657.6 ppb | more than 93% | 9.8 | 17.9 | 130 | 220 | 148 | 218 | 0.48 | 0.25 |
